This is an account of results in EP3345917A1, “ANTIPROTOZOAL COMPOUNDS” (Bacoba AG, priority 2017, dated 2018).

Structures are written as SMILES. Non-standard residues stand in square brackets, D forms with d. Residues, ends and D or L forms follow the SMILES beside them. *: point of attachment. Hexenoyl(2E,4S-Me) = CC[C@H](C)/C=C/C(=O)*; Benzoyl(4-CF3) = O=C(c1ccc(C(F)(F)F)cc1)*; Leu(3R-OH) = CC(C)[C@@H](O)[C@H](N)C(=O)O; X10 = O=C(c1ccccc1)[C@H]1CCCC[C@H]1C(=O)*; NH((S)CH(Me)CH2NMe2) = C[C@@H](CN(C)C)N*; Pro(4S-Me) = C[C@@H]1CN[C@H](C(=O)O)C1; Gly(octyl) = CCCCCCCC[C@H](N)C(=O)O; hCha = N[C@@H](CCC1CCCCC1)C(=O)O; X20 = O=C(c1ccc2[nH]ccc2c1)*; X15 = O=C(c1ccc2cccnc2c1)*; Hexanoyl = CCCCCC(=O)*; Aib = CC(C)(N)C(=O)O; Ms = CS(=O)(=O)*; βAla = NCCC(=O)O

For data set [1], the system named is Trypanosoma brucei rhodesiense (STIB 900 strain). The experiment in a line: Alamar Blue assay against Trypanosoma brucei rhodesiense grown in axenic medium. Format: cell-based. The conditions noted are these: In vitro inhibition, read-out: T.b.rhod. An outline of the steps:
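Alamar Blue-based IC50 determination, in triplicate, on axenically grown STIB 900 trypanosomes. Melarsoprol included as reference.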

The test system of data set [2] is Trypanosoma cruzi trypomastigote forms (Tulahuen strain). The experiment in a line: Intracellular Trypanosoma cruzi assay in L6-cells, beta-galactosidase/CPRG readout. It counts as cell-based. Particulars: In vitro inhibition, read-out: T.cruzi. An outline of the steps: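 Readout was β-galactosidase cleavage of CPRG, read photometrically at 540 nm after 2–6 h colour development, giving IC50 values. Parasites: LacZ-expressing Tulahuen C2C4 strain grown in rat L6 myoblasts; run in triplicate.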

For data set [3], the system named is Axenically grown Leishmania donovani amastigotes (strain MHOM/ET/67/L82). The experiment in a line: Axenic Leishmania donovani amastigote resazurin assay. It counts as cell-based. Particulars: In vitro inhibition, read-out: L.don. ax. An outline of the steps: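 IC50 values derive from resazurin fluorescence (ex 536 nm, em 588 nm), expressed relative to the negative control, after 2-4 hours of plate development. Axenic amastigotes of strain MHOM/ET/67/L82 were used; each test run in triplicate.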

Data set [4] has as its system intracellular Leishmania donovani (L.don. InMac). The experiment in a line: Intracellular Leishmania donovani assay (L.don. InMac). Format: cell-based. The conditions noted are these: In vitro inhibition. The text has this:
(§1) Tests were done in triplicate.

The next data set relates to Plasmodium falciparum. The experiment in a line: 3H-hypoxanthine incorporation assay against Plasmodium falciparum. It counts as cell-based. The conditions noted are these: In vitro inhibition, read-out: P.falc NF5. As to the method: as §1
IC50 values were calculated by linear interpolation.

The nature of data set [5]: Cytotoxicity assay on L6-cells (Alamar Blue). The conditions noted are these: rat, Cytotox L6, Cytotoxicity against rat myoblast cells (L6).

For `CCCCCCCC[C@H](NC(=O)[C@@H]1CCCC[C@@H]1C(=O)c1ccccc1)C(=O)N[C@@H](CC(C)C)C(=O)NC(C)(C)C(=O)N[C@@H](CC(C)C)C(=O)N[C@@H](CC(C)C)C(=O)NC(C)(C)C(=O)NC(C)(C)C(=O)NCCC(=O)N[C@@H](C)CN(C)C` [Compound 5945, (2S)-2-{[(1R,2S)-2-benzoylcyclohexyl]formamido}-N-[(1S)-1-[(1-{[(1S)-1-{[(1S)-1-{[1-({1-[(2-{[(2S)-1-(dimethylamino)propan-2-yl]carbamoyl}ethyl)carbamoyl]-1-methylethyl}carbamoyl)-1-methylethyl]carbamoyl}-3-methylbutyl]carbamoyl}-3-methylbutyl]carbamoyl}-1-methylethyl)carbamoyl]-3-methylbutyl]decanamide] (X10-[Gly(octyl)]L[Aib]LL[Aib][Aib][βAla]-{NH((S)CH(Me)CH2NMe2)}), the IC50 is 0.4 nM in data set [1]; 34.3 nM in data set [2]; 42700 nM in data set [3]; less than 34.7 nM in data set [4]; 42600 nM with Plasmodium falciparum. Moreover, the IC50 at 70 h in data set [5] was 144 nM.

Turning to `CCCCCCCC[C@H](NC(=O)[C@@H]1C[C@H](C)CN1C(=O)/C=C/[C@@H](C)CC)C(=O)N[C@H](C(=O)NC(C)(C)C(=O)N[C@@H](CC(C)C)C(=O)N[C@@H](CC(C)C)C(=O)NC(C)(C)C(=O)NC(C)(C)C(=O)NCCC(=O)N[C@@H](C)CN(C)C)[C@H](O)C(C)C` [Compound 5492, (2S)-N-[(1S,2R)-1-[(1-{[(1S)-1-{[(1S)-1-{[1-({1-[(2-{[(2S)-1-(dimethylamino)propan-2-yl]carbamoyl}ethyl)carbamoyl]-1-methylethyl}carbamoyl)-1-methylethyl]carbamoyl}-3-methylbutyl]carbamoyl}-3-methylbutyl]carbamoyl}-1-methylethyl)carbamoyl]-2-hydroxy-3-methylbutyl]-2-{[(2S,4S)-4-methyl-1-[(2E,4S)-4-methylhex-2-enoyl]pyrrolidin-2-yl]formamido}decanamide] ({Hexenoyl(2E,4S-Me)}-[Pro(4S-Me)][Gly(octyl)][Leu(3R-OH)][Aib]LL[Aib][Aib][βAla]-{NH((S)CH(Me)CH2NMe2)}), the IC50 in data set [1] worked out at 5.5 nM; in data set [2], 113 nM; in data set [3], 2 nM; in data set [4] it was 36.6 nM; in the data set with Plasmodium falciparum it was 4.7 nM. In addition, the IC50 at 70 h in data set [5] worked out at 147 nM.

Consider `CCCCCC(=O)N1CCC[C@H]1C(=O)N[C@@H](CCC1CCCCC1)C(=O)N[C@@H](CC(C)C)C(=O)NC(C)(C)C(=O)N[C@@H](CC(C)C)C(=O)N[C@@H](CC(C)C)C(=O)NC(C)(C)C(=O)NC(C)(C)C(=O)NCCC(=O)N[C@@H](C)CN(C)C` [Compound 5942, (2S)-2-[(2S)-4-cyclohexyl-2-{[(2S)-1-hexanoylpyrrolidin-2-yl]formamido}butanamido]-N-(1-{[(1S)-1-{[(1S)-1-{[1-({1-[(2-{[(2S)-1-(dimethylamino)propan-2-yl]carbamoyl}ethyl)carbamoyl]-1-methylethyl}carbamoyl)-1-methylethyl]carbamoyl}-3-methylbutyl]carbamoyl}-3-methylbutyl]carbamoyl}-1-methylethyl)-4-methylpentanamide] (Hexanoyl-P[hCha]L[Aib]LL[Aib][Aib][βAla]-{NH((S)CH(Me)CH2NMe2)}), for which the IC50 in data set [1] is 0.3 nM; in data set [2], 4 nM; in data set [3], 42600 nM; in data set [4] it was less than 35.4 nM; in the data set with Plasmodium falciparum, 0.9 nM. The molecule further came in with an IC50 at 70 h in data set [5] of 148 nM.

In the case of `CCCCCCCC[C@H](NC(=O)[C@@H]1CCCN1C(C)=O)C(=O)N[C@H](C(=O)NC(C)(C)C(=O)N[C@@H](CC(C)C)C(=O)N[C@@H](CC(C)C)C(=O)NC(C)(C)C(=O)NC(C)(C)C(=O)NCCC(=O)N[C@@H](C)CN(C)C)[C@H](O)C(C)C` [Compound 5588, (2S)-2-{[(2S)-1-acetylpyrrolidin-2-yl]formamido}-N-[(1S,2R)-1-[(1-{[(1S)-1-{[(1S)-1-{[1-({1-[(2-{[(2S)-1-(dimethylamino)propan-2-yl]carbamoyl}ethyl)carbamoyl]-1-methylethyl}carbamoyl)-1-methylethyl]carbamoyl}-3-methylbutyl]carbamoyl}-3-methylbutyl]carbamoyl}-1-methylethyl)carbamoyl]-2-hydroxy-3-methylbutyl]decanamide] (Ac-P[Gly(octyl)][Leu(3R-OH)][Aib]LL[Aib][Aib][βAla]-{NH((S)CH(Me)CH2NMe2)}), the IC50 in data set [1] was found to be 6 nM; in data set [2], 2330 nM; in data set [3], 4.6 nM; in data set [4], 463 nM; in the data set on Plasmodium falciparum it was 9.6 nM. For the same molecule, in data set [5], the IC50 at 70 h stood at 3540 nM.

As to `CCCCCCCC[C@H](NC(=O)[C@@H]1CCCN1S(C)(=O)=O)C(=O)N[C@@H](CC(C)C)C(=O)NC(C)(C)C(=O)N[C@@H](CC(C)C)C(=O)N[C@@H](CC(C)C)C(=O)NC(C)(C)C(=O)NC(C)(C)C(=O)NCCC(=O)N[C@@H](C)CN(C)C` [Compound 5652, (2S)-N-[(1S)-1-[(1-{[(1S)-1-{[(1S)-1-{[1-({1-[(2-{[(2S)-1-(dimethylamino)propan-2-yl]carbamoyl}ethyl)carbamoyl]-1-methylethyl}carbamoyl)-1-methylethyl]carbamoyl}-3-methylbutyl]carbamoyl}-3-methylbutyl]carbamoyl}-1-methylethyl)carbamoyl]-3-methylbutyl]-2-{[(2S)-1-methanesulfonylpyrrolidin-2-yl]formamido}decanamide] (Ms-P[Gly(octyl)]L[Aib]LL[Aib][Aib][βAla]-{NH((S)CH(Me)CH2NMe2)}), the IC50 in data set [1] came to 4 nM; in data set [2] it was 436 nM; in data set [3], 8.1 nM; in data set [4], 166 nM; in the data set on Plasmodium falciparum, 4.6 nM. In data set [5], this molecule returned an IC50 at 70 h of 1410 nM.

Consider `CCCCCCCC[C@H](NC(=O)[C@@H]1CCCN1C(=O)c1ccc2[nH]ccc2c1)C(=O)N[C@@H](CC(C)C)C(=O)NC(C)(C)C(=O)N[C@@H](CC(C)C)C(=O)N[C@@H](CC(C)C)C(=O)NC(C)(C)C(=O)NC(C)(C)C(=O)NCCC(=O)N[C@@H](C)CN(C)C` [Compound 5911, (2S)-N-[(1S)-1-[(1-{[(1S)-1-{[(1S)-1-{[1-({1-[(2-{[(2S)-1-(dimethylamino)propan-2-yl]carbamoyl}ethyl)carbamoyl]-1-methylethyl}carbamoyl)-1-methylethyl]carbamoyl}-3-methylbutyl]carbamoyl}-3-methylbutyl]carbamoyl}-1-methylethyl)carbamoyl]-3-methylbutyl]-2-{[(2S)-1-(1H-indole-5-carbonyl)pyrrolidin-2-yl]formamido}decanamide] (X20-P[Gly(octyl)]L[Aib]LL[Aib][Aib][βAla]-{NH((S)CH(Me)CH2NMe2)}), for which the IC50 amounted to 25600 nM in data set [1]; 34 nM in data set [2]; 14.4 nM in data set [3]; 34.8 nM in data set [4]; 42500 nM with Plasmodium falciparum.

Regarding `CCCCCCCC[C@H](NC(=O)[C@@H]1CCCN1C(=O)c1ccc2cccnc2c1)C(=O)N[C@@H](CC(C)C)C(=O)NC(C)(C)C(=O)N[C@@H](CC(C)C)C(=O)N[C@@H](CC(C)C)C(=O)NC(C)(C)C(=O)NC(C)(C)C(=O)NCCC(=O)N[C@@H](C)CN(C)C` [Compound 5938, (2S)-N-[(1S)-1-[(1-{[(1S)-1-{[(1S)-1-{[1-({1-[(2-{[(2S)-1-(dimethylamino)propan-2-yl]carbamoyl}ethyl)carbamoyl]-1-methylethyl}carbamoyl)-1-methylethyl]carbamoyl}-3-methylbutyl]carbamoyl}-3-methylbutyl]carbamoyl}-1-methylethyl)carbamoyl]-3-methylbutyl]-2-{[(2S)-1-(quinoline-7-carbonyl)pyrrolidin-2-yl]formamido}decanamide] (X15-P[Gly(octyl)]L[Aib]LL[Aib][Aib][βAla]-{NH((S)CH(Me)CH2NMe2)}), the IC50 in data set [1] came to 0.5 nM; in data set [2] it was 42400 nM; in data set [3], 42400 nM; in data set [4], 37.8 nM; in the data set on Plasmodium falciparum, 13200 nM.

In the case of `CCCCCCCC[C@H](NC(=O)[C@@H]1CCCN1C(=O)c1ccc(C(F)(F)F)cc1)C(=O)N[C@@H](CC(C)C)C(=O)NC(C)(C)C(=O)N[C@@H](CC(C)C)C(=O)N[C@@H](CC(C)C)C(=O)NC(C)(C)C(=O)NC(C)(C)C(=O)NCCC(=O)N[C@@H](C)CN(C)C` [Compound 5936, (2S)-N-[(1S)-1-[(1-{[(1S)-1-{[(1S)-1-{[1-({1-[(2-{[(2S)-1-(dimethylamino)propan-2-yl]carbamoyl}ethyl)carbamoyl]-1-methylethyl}carbamoyl)-1-methylethyl]carbamoyl}-3-methylbutyl]carbamoyl}-3-methylbutyl]carbamoyl}-1-methylethyl)carbamoyl]-3-methylbutyl]-2-{[(2S)-1-[4-(trifluoromethyl)benzoyl]pyrrolidin-2-yl]formamido}decanamide] ({Benzoyl(4-CF3)}-P[Gly(octyl)]L[Aib]LL[Aib][Aib][βAla]-{NH((S)CH(Me)CH2NMe2)}), the IC50 was 0.7 nM in data set [1]; 52.6 nM in data set [2]; 11700 nM in data set [3]; less than 33.2 nM in data set [4]; 31300 nM with Plasmodium falciparum.
